Data published in article PMC8589628, “Characterization and Antimicrobial Studies of Iturin-Like and Bogorol-Like Lipopeptides From Brevibacillus spp. Strains GI9 and SKDU10” (Frontiers in Microbiology, 2021).
Read-outs that look alike come from different tables or passages of the source. Peptide text beside a SMILES is read from it. * marks the point of attachment. X1 = CC(C)CCCCCCCCCCCCC(=O)*

Columns and labels:
[1] = system: A. brassicicola MTCC 2102; assay: Protection of tomato slices and grapes from fungal spores; set-up: species or system Alternaria brassicicola; settings: 500 μl of 2 mg/ml lipopeptide, then 50 μl spore suspension (10^7 conidia per ml); 25°C, 4 days; three replicates
Method: The surface of the tomatoes and grapes was sterilized with 5% NaOCl for 5 min and rinsed three times with plenty of sterile water. After sterilization, tomatoes were cut into slices and wounds of 3 mm were inflicted with a sterile scalpel on the surface of the grapes. Tomato slices and grapes were divided into four groups. Contents of group 1 were treated with water only (negative control). Contents of group 2 were treated with 50 μl of a spore suspension (spores 10^7 conidia per ml) of A. brassicicola MTCC 2102 (positive control without treatment). Contents of group 3 were first treated with 500 μl of 2 mg/ml solution of purified lipopeptides separately and after adsorption of lipopeptides, fungal spores were added. Contents of the fourth group were treated with purified lipopeptides only without addition of fungal spores. Tomato slices and grapes from all four groups were incubated at 25°C under controlled humidity conditions for 4 days and observed. Each treatment was performed with three biological and technical replicates.

[2] = system: S. aureus MTCC 1430; assay: Time kill assay; assay type: cell-based, Staphylococcus aureus; settings: in PBS, CFU count
Method: (§1) Killing kinetics of purified compounds was performed using cells of S. aureus MTCC 1430, V. cholerae MTCC 3904, and C. albicans MTCC 183. Test strains were grown to obtain OD between 0.2 and 0.3 (OD 600 nm), centrifuged, and washed thrice with sterile PBS. Pellets were suspended in PBS and treated with different concentrations of active compounds. Cells after treatment were washed, resuspended, and serially diluted cell suspensions were plated on NA plates. After overnight incubation at 37°C, CFU were recorded ([Singh et al., 2021]).

[3] = Critical micelle concentration by tensiometer; assay type: physicochemical; settings: surface tension by tensiometer at room temperature, 0.1 to 1000 μg/ml, mean of triplicate experiments
Method: (§2) Collapse Drop Assay (CDA) was performed as mentioned earlier ([Sharma et al., 2020]). To a well of 96 well microtiter plate, 2 μl mineral oil was added and equilibrated at 37°C for 24 h. Purified lipopeptide (5 μl of 10 μg/ml stock) was applied to the top of oil droplet and its shape was observed after 1 min with a magnifying glass for collapse and spread due to reduction in surface tension. Water and triton X-100 served as controls ([Youssef et al., 2004]). To determine critical micelle concentration (CMC), different concentrations of purified lipopeptides were prepared and surface tension was measured on a tensiometer (KRUSS K10T, Germany) at room temperature. The values for CMC were estimated by plotting surface tension as a function of concentration of lipopeptides. A point of intersection was located between the pre and post CMC data plot. The mean value of triplicate experiments was used to increase the accuracy. Concentrations ranging from 0.1 to 1000 μg/ml were used to determine surface tension on a tensiometer.

[4] = target: Proteinase K (Parengyodontium album, UniProt P06873); assay: Effect of hydrolytic enzymes on activity (well-diffusion assay); assay type: in vitro ADME; settings: for Tolerance to proteinase K treatment: 37°C, 6 h; for Residual activity: Proteinase K, 6h/ 37 °C, 50 mM phosphate buffer (pH 7.0), enzyme 0.1, 1.0 and 5.0 mg/ml used, well-diffusion assay
Method: (§3) Sensitivities of purified antimicrobial compounds to temperature, pH, and hydrolytic enzymes were confirmed by performing well-diffusion assay. pH stability was determined by adjusting the pH of aliquots of purified antimicrobial compounds from 2.0 to 12.0 (using 10 mM HCl or NaOH) and incubating at room temperature for 4 h. The residual activity was measured after neutralizing the sample to pH 7.0. To determine temperature susceptibility, antimicrobial compounds were incubated at different temperatures ranging from 37 to 100°C for 1 h and 121°C for 15 min, and then residual antimicrobial activity was determined after cooling the samples to room temperature. Similarly, proteolytic enzymes such as trypsin and proteinase K were used at three different concentrations (0.1, 1.0, and 5.0 mg/ml) to ensure their effect on the activity of antimicrobial compounds. The enzyme solutions were prepared in 50 mM phosphate buffer (pH 7.0). All reactions were performed at 37°C for 6 h followed by deactivation of the enzyme by heating the solution in boiling water for 5 min before performing the activity assay.

[5] = system: Trypsin; assay: as above; assay type: in vitro ADME; settings: for Tolerance to trypsin treatment: 37°C, 6 h; for Residual activity: Trypsin, 6h/ 37 °C, 50 mM phosphate buffer (pH 7.0), enzyme 0.1, 1.0 and 5.0 mg/ml used, well-diffusion assay
Method: as §3

[6] = system: Chymotrypsin; assay: as above; assay type: in vitro ADME; settings: 6h/ 37 °C
Method: as §3

[7] = system: Lipase; assay: as above; assay type: in vitro ADME; settings: 6h/ 37 °C
[8] = system: V. cholerae MTCC 3904; assay type: cell-based, Vibrio cholera
Method: The antimicrobial activity of HPLC purified compounds was determined against various test strains including S. aureus MTCC 1430, Vibrio cholera MTCC 3904, Bacillus subtilis MTCC 121, Listeria monocytogenes MTCC 839, C. albicans MTCC 183, C. albicans MTCC 1637, C. albicans MTCC 227, C. tropicalis MTCC 184, C. glabrata MTCC 3019, and C. inconspicua MTCC 1074. Antimicrobial activity was also tested against clinical Candida strains and phytopathogenic fungi viz. Fusarium moniliforme MTCC 158, Alternaria brassicicola MTCC 2102 and Colletotrichum acutatum MTCC 1037. Bacterial and Candida test strains were grown in NB and yeast malt broth (YMB), respectively. Fungal test strains were grown in potato dextrose broth (PDB). Minimum inhibitory concentrations (MICs) of purified compounds were evaluated against test organisms by using a microtiter plate dilution assay. Mid-log-phase test strains (5 × 10^5 CFU/ml) were incubated in a 96-well plate with different concentrations of the lipopeptides for 24–48 h at 37°C (final volume of 200 μl). OD was measured at 600 nm after 24 and 48 h for bacteria and yeast, respectively, using an ELISA microplate reader (Thermo Scientific, United States). MIC against phytopathogenic fungi was determined using the 96-well microtiter plate method ([Sharma et al., 2020]).

[9] = system: C. albicans MTCC 183; assay: Time kill assay; assay type: cell-based, Candida albicans; settings: for Time to complete killing: C. albicans MTCC 183, 5X MIC, in PBS, CFU count
Method: as §1

[10] = Collapse drop assay (CDA); assay type: physicochemical; settings: 5 μl of 10 μg/ml stock on mineral oil droplet, observed after 1 min
Method: as §2

Chain of Proteinase K (P06873 106-384): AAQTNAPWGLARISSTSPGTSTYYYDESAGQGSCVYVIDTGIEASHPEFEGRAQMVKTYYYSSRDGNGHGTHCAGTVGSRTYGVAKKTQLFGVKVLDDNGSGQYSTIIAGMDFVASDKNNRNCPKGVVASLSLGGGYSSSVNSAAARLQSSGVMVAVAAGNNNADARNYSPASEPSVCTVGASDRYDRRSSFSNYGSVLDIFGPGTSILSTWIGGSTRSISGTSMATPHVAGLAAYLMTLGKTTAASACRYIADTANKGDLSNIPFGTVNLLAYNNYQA

Compound	Fungal growth on the surface of treated tomato and grape slices inoculated with spores [1]	Time to complete reduction in population ([2]; S. aureus MTCC 1430, 1X MIC) [min]	Time to complete reduction in population ([2]; S. aureus MTCC 1430, 2X MIC) [min]	CMC (critical micelle concentration) [3] [µg/mL]	Tolerance to proteinase K treatment [4]	Residual activity [4] [%]	Tolerance to trypsin treatment [5]	Residual activity [5] [%]	Residual activity [6] [%]	Residual activity [7] [%]	MIC value ([8]; V. cholerae MTCC 3904, NB, 5 × 10^5 CFU/ml, 37°C, OD 600 nm after 24 h, 10–550 μg/ml in 5 μg/ml increments) [µg/mL]	Complete killing of cells within 4 h ([9]; C. albicans MTCC 183, 1X MIC)	Complete killing of cells within 4 h ([9]; C. albicans MTCC 183, 2X MIC)	Time to complete killing [9] [h]	Collapse drop assay reaction [10]	MIC value ([8]; MTCC 3904, 24 h) [µg/mL]	Reduction in growth ([9]; C. albicans MTCC 183, 1X MIC, 4 h) [log]
Dhb-Tyr-Orn-Ile-Val-Val-Lys-Val-Leu-Asp-Val-Glu [BLL, bogorol like lipopeptide purified from Brevibacillus sp. strain SKDU10; 12 amino acids and C17 hydroxy fatty acid side chain]	no fungal growth	≤ 30	≤ 30	110	resistant	77.7	resistant	91.6	94.4	100	140 to 150	not observed	not observed	≤ 4	positive reaction		
CC(C)CCCCCCCCCCCCC(=O)N[C@H](C(=O)NCC(=O)N[C@@H](C)C(=O)N[C@@H](CO)C(=O)N[C@@H](Cc1c[nH]cn1)C(=O)N[C@@H](CCC(N)=O)C(=O)N[C@@H](CCC(N)=O)C(=O)O)[C@@H](C)O [ILL] (X1-TGASHQQ-OH; N-terminus assumed)	no fungal growth	≤ 60	≤ 30	90	resistant	82.3	resistant	94.1	91.1	100				4	positive reaction	105 to 115	2
